Laboratory results from ChEMBL document CHEMBL1201862, “PubChem BioAssay data set” (2004).
Activity calls are given as the source filed them.

Tests used:
[1] = molecular target: Estrogen receptor beta (Homo sapiens, UniProt Q92731);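 note: recombinant ER-beta bound to coactivator SRC1 peptide in presence of estradiol agonist; inhibitors block coactivator peptide binding and lower the FRET signal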
[2] = molecular target: FAD-linked sulfhydryl oxidase ALR (Homo sapiens, UniProt P55789); assay: inhibitors of human ALR sulfhydryl oxidase, dose response, biochemical, H2O2 detection, luminescence, cherry-pick (AID 493248)
Chain of FAD-linked sulfhydryl oxidase ALR (P55789 whole entry): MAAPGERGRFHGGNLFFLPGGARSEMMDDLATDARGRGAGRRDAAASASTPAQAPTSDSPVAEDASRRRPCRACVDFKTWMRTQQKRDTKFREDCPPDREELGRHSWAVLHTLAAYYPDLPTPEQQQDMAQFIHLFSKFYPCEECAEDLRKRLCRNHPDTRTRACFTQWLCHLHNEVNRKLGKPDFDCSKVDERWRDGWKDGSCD

[3] = molecular target: Prothrombin (Homo sapiens, UniProt P00734); assay: Thrombin 1536 HTS Dose Response Confirmation. [Related pubchem assays: 1046 (Thrombin 1536 HTS; hits were confirmed in this assay)]; type: functional
[4] = system: HT-1080; assay: cytotoxicity in HT1080 fibrosarcoma cells, cell-based, fluorescence readout (AID 620); type: functional; conditions: Homo sapiens
[5] = molecular target: T1, Luciferin 4-monooxygenase (Photinus pyralis, UniProt P08659); assay: Counter Screen for Luciferase-based Assay Positives. [Related pubchem assays: 620, 618, 411 ]
T1 sequence (P08659 whole entry): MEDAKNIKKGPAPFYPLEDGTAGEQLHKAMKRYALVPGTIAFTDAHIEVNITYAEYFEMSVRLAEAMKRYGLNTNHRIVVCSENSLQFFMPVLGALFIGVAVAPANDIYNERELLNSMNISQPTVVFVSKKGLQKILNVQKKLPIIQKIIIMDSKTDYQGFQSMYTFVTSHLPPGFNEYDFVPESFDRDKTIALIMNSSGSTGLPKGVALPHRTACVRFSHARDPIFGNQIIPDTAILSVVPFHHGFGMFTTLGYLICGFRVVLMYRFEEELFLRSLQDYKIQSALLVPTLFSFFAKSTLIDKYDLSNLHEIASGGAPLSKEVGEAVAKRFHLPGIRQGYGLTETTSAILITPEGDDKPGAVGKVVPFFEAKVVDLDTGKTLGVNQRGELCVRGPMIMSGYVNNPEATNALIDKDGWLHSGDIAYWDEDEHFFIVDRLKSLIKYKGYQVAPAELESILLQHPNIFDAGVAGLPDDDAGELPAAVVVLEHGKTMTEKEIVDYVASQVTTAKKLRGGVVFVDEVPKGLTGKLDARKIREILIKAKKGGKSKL

[6] = molecular target: T2, Replicative DNA helicase DnaB (Mycobacterium tuberculosis, UniProt P9WMR3); assay: DnaB intein splicing inhibitors, dose response, biochemical, cell-free fluorescence (AID 449749); type: functional
T2 sequence (P9WMR3 whole entry): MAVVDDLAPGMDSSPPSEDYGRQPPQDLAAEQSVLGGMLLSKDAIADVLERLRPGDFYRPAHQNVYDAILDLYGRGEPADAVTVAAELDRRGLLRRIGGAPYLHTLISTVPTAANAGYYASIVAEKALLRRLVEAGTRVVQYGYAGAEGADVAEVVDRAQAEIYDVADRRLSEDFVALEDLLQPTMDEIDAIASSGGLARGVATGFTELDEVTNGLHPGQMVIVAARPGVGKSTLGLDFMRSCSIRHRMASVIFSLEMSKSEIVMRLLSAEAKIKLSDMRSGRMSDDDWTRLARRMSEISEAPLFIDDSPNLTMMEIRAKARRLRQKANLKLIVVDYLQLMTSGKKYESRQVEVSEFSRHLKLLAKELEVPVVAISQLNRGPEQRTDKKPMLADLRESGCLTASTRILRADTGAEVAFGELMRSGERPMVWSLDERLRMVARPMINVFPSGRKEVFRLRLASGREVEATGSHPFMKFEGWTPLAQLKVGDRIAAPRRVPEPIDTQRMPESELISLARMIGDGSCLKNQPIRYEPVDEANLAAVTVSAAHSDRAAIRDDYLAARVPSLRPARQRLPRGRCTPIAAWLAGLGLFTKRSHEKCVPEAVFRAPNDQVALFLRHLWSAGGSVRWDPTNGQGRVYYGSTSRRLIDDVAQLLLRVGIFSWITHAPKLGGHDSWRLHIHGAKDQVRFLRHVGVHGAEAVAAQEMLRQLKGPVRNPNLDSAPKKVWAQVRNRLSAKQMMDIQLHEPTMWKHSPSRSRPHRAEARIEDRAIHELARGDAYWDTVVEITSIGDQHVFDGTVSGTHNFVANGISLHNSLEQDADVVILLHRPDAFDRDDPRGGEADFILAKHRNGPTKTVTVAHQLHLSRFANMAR

[7] = molecular target: T3, Protein RecA (Mycobacterium tuberculosis, UniProt P9WHJ3); assay: Fluorescence Cell-Free Homogeneous Dose Retest to Identify Inhibitors of RecA-Intein Splicing Activity. [Related pubchem assays (depositor defined):AID2097, AID2223, AID489010, AID492950]; type: functional
T3 sequence (P9WHJ3 whole entry): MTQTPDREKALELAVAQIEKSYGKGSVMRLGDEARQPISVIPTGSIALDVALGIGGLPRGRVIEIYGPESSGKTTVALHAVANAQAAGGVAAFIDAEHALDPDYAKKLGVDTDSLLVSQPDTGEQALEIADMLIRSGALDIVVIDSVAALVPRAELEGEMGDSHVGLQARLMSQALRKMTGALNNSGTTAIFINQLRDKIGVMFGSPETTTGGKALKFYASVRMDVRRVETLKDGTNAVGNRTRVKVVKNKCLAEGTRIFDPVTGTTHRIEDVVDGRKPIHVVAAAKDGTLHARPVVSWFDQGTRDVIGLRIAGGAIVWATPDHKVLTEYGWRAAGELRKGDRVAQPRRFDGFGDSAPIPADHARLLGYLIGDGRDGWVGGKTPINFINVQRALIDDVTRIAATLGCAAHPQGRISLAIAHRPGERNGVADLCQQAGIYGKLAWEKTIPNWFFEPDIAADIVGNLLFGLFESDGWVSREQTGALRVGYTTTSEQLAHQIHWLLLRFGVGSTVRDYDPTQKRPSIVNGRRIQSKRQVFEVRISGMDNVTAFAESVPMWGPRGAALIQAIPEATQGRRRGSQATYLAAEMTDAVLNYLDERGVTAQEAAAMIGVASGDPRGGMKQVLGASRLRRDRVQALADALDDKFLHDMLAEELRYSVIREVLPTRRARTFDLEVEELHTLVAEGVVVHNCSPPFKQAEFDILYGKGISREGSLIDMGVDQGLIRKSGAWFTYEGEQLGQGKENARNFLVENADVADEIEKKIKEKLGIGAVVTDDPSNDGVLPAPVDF

[8] = cells
[9] = molecular target: Major prion protein (Homo sapiens, UniProt P04156); type: functional, cell-based
[10] = molecular target: T4, Adenosylmethionine-8-amino-7-oxononanoate aminotransferase (Mycobacterium tuberculosis, UniProt P9WQ81); assay: Mycobacterium tuberculosis BioA enzyme inhibitor Measured in Biochemical System Using Plate Reader - 2163-02_Inhibitor_Dose_CherryPick_Activity.; type: functional, Mycobacterium tuberculosis UT205
T4 sequence (P9WQ81 whole entry): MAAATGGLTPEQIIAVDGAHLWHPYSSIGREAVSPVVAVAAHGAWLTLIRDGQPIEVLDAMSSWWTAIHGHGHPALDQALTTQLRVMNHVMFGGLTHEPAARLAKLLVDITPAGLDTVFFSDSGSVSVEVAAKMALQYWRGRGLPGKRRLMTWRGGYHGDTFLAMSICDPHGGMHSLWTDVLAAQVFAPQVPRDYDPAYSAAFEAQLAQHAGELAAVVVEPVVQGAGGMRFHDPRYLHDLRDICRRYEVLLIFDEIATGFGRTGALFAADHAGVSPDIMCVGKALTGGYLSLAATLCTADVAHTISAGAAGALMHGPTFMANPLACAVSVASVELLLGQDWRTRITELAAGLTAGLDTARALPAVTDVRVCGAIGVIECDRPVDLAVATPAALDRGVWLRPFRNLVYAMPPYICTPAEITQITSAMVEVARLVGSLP

[11] = system: HeLa; assay: HeLa cell cytotoxicity, dose response, cytotoxicity control for MITF activator project, CellTiter-Glo luminescence, cherry-pick samples (AID 540259); type: functional, cell-based; conditions: Homo sapiens
[12] = HepG2 cell cytotoxicity, dose response, cytotoxicity control, plate reader, cherry-pick, antagonist series (AID 743416); type: functional, cell-based
[13] = A549 cell cytotoxicity, dose response, cytotoxicity control, plate reader, cherry-pick, antagonist series (AID 743412); type: functional, cell-based
[14] = MC4R antagonists, dose response, counter-screen for LGR2 antagonist project, cell-based, plate reader, cherry pick (AID 743444); type: functional;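 note: transfected HEK 293 cells stimulated with alpha-MSH peptide; potency of inhibitors of the alpha-MSH evoked signal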
[15] = LGR2 antagonists, dose response, cell-based, HEK293, CRE-luciferase reporter, cherry pick, set 2 (AID 743343); type: functional;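 note: transfected cells were stimulated with diluted bursicon conditioned medium after compound addition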
[16] = molecular target: T1, Luciferin 4-monooxygenase; assay: firefly luciferase enzyme inhibitors, dose response, biochemical, luminescence (AID 1891)
[17] = Luminescence Cell-Based Dose Confirmation HTS to Identify Inhibitors of Platelet Dense Granule Release. [Related pubchem assays: 1663 (Primary HTS), 1678 (Summary of Project)]; type: functional
[18] = cells; type: functional, cell-based
[19] = cells; type: functional, cell-based; remark: listed apart in the source

Chain of Estrogen receptor beta (Q92731 whole entry): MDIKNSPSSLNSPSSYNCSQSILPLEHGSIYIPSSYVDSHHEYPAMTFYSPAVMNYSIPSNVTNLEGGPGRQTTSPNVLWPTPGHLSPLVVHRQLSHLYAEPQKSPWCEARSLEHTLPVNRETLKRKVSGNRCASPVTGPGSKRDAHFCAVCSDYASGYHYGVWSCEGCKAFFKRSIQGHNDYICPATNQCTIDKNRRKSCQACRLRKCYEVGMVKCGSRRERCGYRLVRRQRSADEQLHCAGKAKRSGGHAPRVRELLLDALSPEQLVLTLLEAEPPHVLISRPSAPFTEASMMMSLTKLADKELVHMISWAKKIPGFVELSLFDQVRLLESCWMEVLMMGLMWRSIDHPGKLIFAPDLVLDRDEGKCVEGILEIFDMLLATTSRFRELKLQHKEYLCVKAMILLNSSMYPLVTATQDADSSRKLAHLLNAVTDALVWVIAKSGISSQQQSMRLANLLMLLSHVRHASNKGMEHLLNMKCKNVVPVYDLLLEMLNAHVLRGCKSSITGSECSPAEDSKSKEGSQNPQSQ

## O=C1OC(Nc2ccc3c(c2)OCO3)c2ccccc21 (centres undefined)
[1]
  IC50: > 50 µM (not active)
[2]
  AC50: 0.577 µM (active)

## Cc1c(-c2cccs2)[n+]([O-])c2c([n+]1[O-])CCC2
[3]
  IC50: > 50 µM (not active)

## CCn1cc(C(=O)NCc2ccc(Cl)cc2)c(=O)c2cc(S(=O)(=O)N3CCOCC3)ccc21
[3]
  IC50: 8.07 µM (active)

## Cc1ccc(C(=O)Nc2nc3c(s2)CCCC3)o1
[4]
  EC50: > 50 µM (not active)
[5]
  EC50: > 100 µM (not active)

## Nc1nc(C(=O)N2CCOCC2)nn1C(=O)c1ccc(Cl)cc1
[6]
  AC50: 12.5 µM (active)
[7]
  EC50: 23.4 µM (active)
[3]
  IC50: 0.00512 µM (active)

## Sc1nc(Cc2ccc(Cl)cc2)nc2ccccc12
[8]
  IC50: > 138 µM (inactive)
[9]
  IC50: 7.46 µM (active)

## C/C=C/c1ccc2c(c1)O[C@@H](CN(C)C(=O)c1ccc3c(c1)OCO3)[C@@H](C)CN([C@@H](C)CO)S2(=O)=O
[10]
  AC50: 5.33 µM (active)

## CC(C)c1nc(SCC(=O)Nc2nc3c(s2)CCCC3)c2ccccc2n1
[8]
  IC50: > 138 µM (inactive)
[9]
  IC50: 5.97 µM (active)

## CC(=O)Nc1cccc(-c2nc3ccc(NC(C)=O)cc3s2)c1
[11]
  AC50: 59.3 µM (active)

## CCCc1ccc(-c2ccc(F)c(N)c2)nc1
[12]
  AC50: > 52 µM (inactive)
[4]
  EC50: > 50 µM (not active)
[13]
  AC50: > 52 µM (inactive)
[14]
  AC50: 4.06 µM (active)
[15]
  AC50: 4.32 µM (active)
[5]
  EC50: 1.58 µM (active)
[16]
  EC50: 6.33 µM (active)
[17]
  EC50: 6.17 µM (active)

## C/C(=N\OCc1ccc(C#N)cc1)c1ccc(S(=O)(=O)N(C)C)cc1
[11]
  AC50: 147 µM (active)

## CC(C)CC(NC(=O)c1ccccc1NC(=O)c1ccccc1)C(=O)O (centres undefined)
[18]
  EC50: > 350 µM (not active)
[19]
  EC50: > 350 µM (not active)

## Cc1cccc(NC(=S)NC(=O)/C=C/c2ccccc2)n1
[3]
  IC50: > 50 µM (not active)

## O=C(Nc1nc2ccccc2[nH]1)c1ccccc1
[4]
  EC50: > 50 µM (not active)
[5]
  EC50: < 0.2 µM (active)
